According to US9856279B2 (AGIOS PHARMACEUTICALS, INC, priority 2011, dated 2018):

What was measured:
U87MG cells = experiment: Cellular assay for IDH1m inhibitors: inhibition of 2-HG production (LC-MS, 48 hours) in U87MG cells; type: cell-based; settings: Homo sapiens, U-87 MG, inhibition of 2-HG production, U87R132H cells; read-out: U87R132H IC50
How it was run: (§1)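 Inhibition of 2-HG production was assessed in cells seeded at 5000/well and exposed to compound for 48 h (final DMSO 0.2%). Supernatant 2-HG was analysed by LC-MS.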

HT1080 cells = experiment: Cellular assay for IDH1m inhibitors: inhibition of 2-HG production (LC-MS, 48 hours) in HT1080 cells; type: cell-based; settings: Homo sapiens, HT-1080; inhibition of 2-HG production, HT1080 cells; read-out: HT1080 IC50
How it was run: as §1

IDH1 R132H = IDH1 R132H (Homo sapiens, UniProt O75874, R132H); experiment: Assay for IDH1 R132H inhibitors (NADPH/aKG, resazurin detection); type: biochemical; settings: enzyme assay of Example 12; read-out: IDH1R132H IC50
How it was run: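 Compound added to substrate mix (8 uM NADPH, 2 mM aKG), then enzyme mix (0.2 μg/ml IDH1 R132H); 50 min RT in 20 mM Tris pH 7.5, 150 mM NaCl, 10 mM MgCl2, 0.03% BSA. Resazurin detection mix (30 μM) 5 min RT; resorufin fluorescence Ex544/Em590.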

IDH1 R132H, sequence (O75874 whole entry R132H): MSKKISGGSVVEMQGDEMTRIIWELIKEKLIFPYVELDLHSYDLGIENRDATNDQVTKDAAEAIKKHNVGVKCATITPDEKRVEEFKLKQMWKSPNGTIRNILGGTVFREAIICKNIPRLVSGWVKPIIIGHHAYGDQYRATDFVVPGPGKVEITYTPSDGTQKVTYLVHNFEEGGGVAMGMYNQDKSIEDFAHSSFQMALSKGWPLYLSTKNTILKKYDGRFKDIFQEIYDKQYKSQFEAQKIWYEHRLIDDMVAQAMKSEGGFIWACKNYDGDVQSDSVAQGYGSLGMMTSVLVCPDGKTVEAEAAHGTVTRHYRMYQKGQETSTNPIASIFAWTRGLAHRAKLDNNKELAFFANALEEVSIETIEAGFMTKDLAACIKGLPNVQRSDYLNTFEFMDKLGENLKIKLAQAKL

| Compound | IC50 (U87MG cells) [nM] | IC50 (HT1080 cells) [nM] | IC50 (IDH1 R132H) [nM] |
| --- | --- | --- | --- |
| CCc1cc(-c2cc(C#N)c(N3CCN(C(=O)CCOC)[C@H](C)C3)nc2C2CC2)ccn1 [Compound 426, (R)-2-cyclopropyl-2′-ethyl-6-(4-(3-methoxypropanoyl)-3-methylpiperazin-1-yl)-3,4′-bipyridine-5-carbonitrile] | 1000 to 10000 | 1000 to 10000 | 500 to 1000 |
| C=CC(=O)N(C)c1cccc(-c2cc(C#N)c(N3CCN(C(=O)CCOC)[C@H](C)C3)nc2C2CC2)c1 [Compound 427] | < 500 | < 500 | < 500 |
| COCCC(=O)N1CCN(c2nc(C3CC3)c(-c3cccc(NC(=O)C(F)F)c3)cc2C#N)C[C@H]1C [Compound 432, (R)—N-(3-(5-cyano-2-cyclopropyl-6-(4-(3-methoxypropanoyl)-3-methylpiperazin-1-yl)pyridin-3-yl)phenyl)-2,2-difluoroacetamide] | 1000 to 10000 | 1000 to 10000 | 500 to 1000 |
| COCCC(=O)N1CCN(c2nc(C3CC3)c(-c3cccc4cnc(C)cc34)cc2C#N)C[C@H]1C [Compound 433, (R)-6-cyclopropyl-2-(4-(3-methoxypropanoyl)-3-methylpiperazin-1-yl)-5-(3-methylisoquinolin-5-yl)nicotinonitrile] | < 500 | < 500 | < 500 |
| COCCC(=O)N1CCN(c2nc(C3CC3)c(-c3ccc4nccn4c3)cc2C#N)C[C@H]1C [Compound 436, (R)-6-cyclopropyl-5-imidazo[1,2-a]pyridin-6-yl-2-[4-(3-methoxy-propionyl)-3-methyl-piperazin-1-yl]-nicotinonitrile] | 500 to 1000 | 500 to 1000 | < 500 |
| COCCC(=O)N1CCN(c2nc(C3CC3)c(-c3cccc4[nH]ncc34)cc2C#N)C[C@H]1C [Compound 438, (R)-6-cyclopropyl-5-(1H-indazol-4-yl)-2-[4-(3-methoxy-propionyl)-3-methyl-piperazin-1-yl]-nicotinonitrile] | 500 to 1000 | 1000 to 10000 | < 500 |
| COCCC(=O)N1CCN(c2nc(C3CC3)c(-c3cccc4nc(O)ccc34)cc2C#N)C[C@H]1C [Compound 442, (R)-6-cyclopropyl-5-(2-hydroxyquinolin-5-yl)-2-(4-(3-methoxypropanoyl)-3-methylpiperazin-1-yl)nicotinonitrile] | < 500 | < 500 | < 500 |
| C=Cc1cc(-c2cc(C#N)c(N3CCN(C(=O)CC(F)(F)F)[C@H](C)C3)nc2C2CC2)ccn1 [Compound 444, (R)-2-cyclopropyl-6-(3-methyl-4-(3,3,3-trifluoropropanoyl)piperazin-1-yl)-2′-vinyl-3,4′-bipyridine-5-carbonitrile] | < 500 | < 500 | < 500 |
| C=C(F)C(=O)N(C)c1cccc(-c2cc(C#N)c(N3CCN(C(=O)CCOC)[C@H](C)C3)nc2C2CC2)c1 [Compound 453, (R)—N-(3-(5-cyano-2-cyclopropyl-6-(4-(3-methoxypropanoyl)-3-methylpiperazin-1-yl)pyridin-3-yl)phenyl)-2-fluoro-N-methylacrylamide] | < 500 | 500 to 1000 | < 500 |
| C#CC(=O)N(C)c1cccc(-c2cc(C#N)c(N3CCN(C(=O)CCOC)[C@H](C)C3)nc2C2CC2)c1 [Compound 456] | < 500 | < 500 | < 500 |
| COCCC(=O)N1CCN(c2nc(C3CC3)c(-c3cccc(N4CC=CC4=O)c3)cc2C#N)C[C@H]1C [Compound 459, (R)-6-cyclopropyl-2-(4-(3-methoxypropanoyl)-3-methylpiperazin-1-yl)-5-(3-(2-oxo-2,5-dihydro-1H-pyrrol-1-yl)phenyl)nicotinonitrile] | < 500 | < 500 | < 500 |

More lines, now with the values ahead:

| IC50 (U87MG cells) [nM] | IC50 (HT1080 cells) [nM] | IC50 (IDH1 R132H) [nM] | Compound |
| --- | --- | --- | --- |
| 500 to 1000 | 500 to 1000 | < 500 | CCC(=O)Nc1cccc(-c2cc(C#N)c(N3CCN(C(=O)CCOC)[C@H](C)C3)nc2C2CC2)c1 [Compound 424, (R)—N-(3-(5-cyano-2-cyclopropyl-6-(4-(3-methoxypropanoyl)-3-methylpiperazin-1-yl)pyridin-3-yl)phenyl)propionamide] |
| 1000 to 10000 | 1000 to 10000 | 500 to 1000 | COCCC(=O)N1CCN(c2nc(C3CC3)c(-c3cccc(NC(=O)C4(C#N)CC4)c3)cc2C#N)C[C@H]1C [Compound 425, (R)-1-cyano-N-(3-(5-cyano-2-cyclopropyl-6-(4-(3-methoxypropanoyl)-3-methylpiperazin-1-yl)pyridin-3-yl)phenyl)cyclopropanecarboxamide] |
| 500 to 1000 | < 500 | < 500 | C#CC(=O)Nc1cccc(-c2cc(C#N)c(N3CCN(C(=O)CCOC)[C@H](C)C3)nc2C2CC2)c1 [Compound 428, (R)—N-(3-(5-cyano-2-cyclopropyl-6-(4-(3-methoxypropanoyl)-3-methylpiperazin-1-yl)pyridin-3-yl)phenyl)propiolamide] |
| 1000 to 10000 | 1000 to 10000 | < 500 | C=CS(=O)(=O)Nc1cccc(-c2cc(C#N)c(N3CCN(C(=O)CCOC)[C@H](C)C3)nc2C2CC2)c1 [Compound 429, (R)—N-(3-(5-cyano-2-cyclopropyl-6-(4-(3-methoxypropanoyl)-3-methylpiperazin-1-yl)pyridin-3-yl)phenyl)ethenesulfonamide] |
| 500 to 1000 | 500 to 1000 | 500 to 1000 | C=C(F)C(=O)Nc1cccc(-c2cc(C#N)c(N3CCN(C(=O)CCOC)[C@H](C)C3)nc2C2CC2)c1 [Compound 431, (R)—N-(3-(5-cyano-2-cyclopropyl-6-(4-(3-methoxypropanoyl)-3-methylpiperazin-1-yl)pyridin-3-yl)phenyl)-2-fluoroacrylamide] |
| < 500 | < 500 | < 500 | C=Cc1cc(-c2cc(C#N)c(N3CCN(C(=O)C4CC4)[C@H](C)C3)nc2C2CC2)ccn1 [Compound 443, (R)-6-(4-(cyclopropanecarbonyl)-3-methylpiperazin-1-yl)-2-cyclopropyl-2′-vinyl-3,4′-bipyridine-5-carbonitrile] |
| 1000 to 10000 | < 500 | < 500 | C=CS(=O)(=O)N(C)c1cccc(-c2cc(C#N)c(N3CCN(C(=O)CCOC)[C@H](C)C3)nc2C2CC2)c1 [Compound 446] |
| 1000 to 10000 | 1000 to 10000 | 500 to 1000 | COCCC(=O)N1CCN(c2nc(C3CC3)c(-c3cccc(NC(=O)[C@H](C)Cl)c3)cc2C#N)C[C@H]1C [Compound 447, (S)-2-chloro-N-(3-(5-cyano-2-cyclopropyl-6-((R)-4-(3-methoxypropanoyl)-3-methylpiperazin-1-yl)pyridin-3-yl)phenyl)propanamide] |
| 1000 to 10000 | 1000 to 10000 | < 500 | CCS(=O)(=O)Nc1cccc(-c2cc(C#N)c(N3CCN(C(=O)CCOC)[C@H](C)C3)nc2C2CC2)c1 [Compound 448, (R)—N-(3-(5-cyano-2-cyclopropyl-6-(4-(3-methoxypropanoyl)-3-methylpiperazin-1-yl)pyridin-3-yl)phenyl)ethanesulfonamide] |
| 1000 to 10000 | 1000 to 10000 | 500 to 1000 | C=C(C)C(=O)Nc1cccc(-c2cc(C#N)c(N3CCN(C(=O)CCOC)[C@H](C)C3)nc2C2CC2)c1 [Compound 449, (R)—N-(3-(5-cyano-2-cyclopropyl-6-(4-(3-methoxypropanoyl)-3-methylpiperazin-1-yl)pyridin-3-yl)phenyl)methacrylamide] |
| 1000 to 10000 | 1000 to 10000 | < 500 | C=CS(=O)(=O)Nc1cccc(-c2cc(C#N)c(N3CCN(C(=O)C4CC4)[C@H](C4CC4)C3)nc2C2CC2)c1 [Compound 451] |
| 1000 to 10000 | 1000 to 10000 | < 500 | C=CS(=O)(=O)N(c1cccc(-c2cc(C#N)c(N3CCN(C(=O)C4CC4)[C@H](C4CC4)C3)nc2C2CC2)c1)S(=O)(=O)C=C [Compound 452, (R)—N-(3-(5-cyano-6-(4-(cyclopropanecarbonyl)-3-cyclopropylpiperazin-1-yl)-2-cyclopropylpyridin-3-yl)phenyl)-N-(vinylsulfonyl)ethenesulfonamide] |
| < 500 | < 500 | < 500 | C=CC(=O)Nc1cccc(-c2cc(C#N)c(N3CCN(C(=O)C4CC4)[C@H](C4CC4)C3)nc2C2CC2)c1 [Compound 454, (R)—N-(3-(5-cyano-6-(4-(cyclopropanecarbonyl)-3-cyclopropylpiperazin-1-yl)-2-cyclopropylpyridin-3-yl)phenyl)acrylamide] |
| 500 to 1000 | 500 to 1000 | < 500 | Cc1cc2c(-c3cc(C#N)c(N4CCN(C(=O)C5CC5)[C@H](C5CC5)C4)nc3C3CC3)cccc2cn1 [Compound 458, (R)-2-(4-(cyclopropanecarbonyl)-3-cyclopropylpiperazin-1-yl)-6-cyclopropyl-5-(3-methylisoquinolin-5-yl)nicotinonitrile] |
| 1000 to 10000 | 1000 to 10000 | 500 to 1000 | COCCC(=O)N1CCN(c2nc(C3CC3)c(-c3cccc(NC(=O)[C@@H](C)Cl)c3)cc2C#N)C[C@H]1C [Compound 462, (R)-2-chloro-N-(3-(5-cyano-2-cyclopropyl-6-((R)-4-(3-methoxypropanoyl)-3-methylpiperazin-1-yl)pyridin-3-yl)phenyl)propanamide] |
